Legend:
Type in all cases: in vivo
[1] = system: waterhemp (common waterhemp, Amaranthus rudis); assay: Test C pre-/postemergence greenhouse test, plant response rating 0-100
How it was run: (§1)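 Visual 0–100 control scores, taken 13 to 15 days post-application in a greenhouse, reflect treatment preemergence (seed in loam soil with sand) or postemergence (2–18 cm plants in peat moss, vermiculite medium). A dash marks no result.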

[2] = system: oilseed rape (Brassica napus); assay: as above
How it was run: as §1

[3] = system: barnyardgrass (Echinochloa crus-galli); assay: as above
How it was run: as §1

[4] = system: waterhemp_RES2, (ALS & HPPD resistant common waterhemp, Amaranthus rudis); assay: Test E postemergence greenhouse test, plant response rating 0-100; conditions: scale 0 to 100
How it was run: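 Visual ratings, 0 (no effect) to 100 (complete control), made versus controls 14–21 days after postemergence application in the greenhouse. Plants were at 1- to 4-leaf stage (2–18 cm) in peat moss/vermiculite potting medium.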

[5] = system: arrowleaf sida (Sida rhombifolia); assay: Test E pre-/postemergence greenhouse test, plant response rating 0-100; conditions: for Arrowleaf Sida plant response rating: Preemergence
How it was run: (§2)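 Sow seeds in silt loam and treat preemergence; at the same time, spray postemergence on 1- to 4-leaf plants in peat/vermiculite mix. Use a non-phytotoxic solvent plus surfactant as carrier. Hold 14–21 days in greenhouse, then score visually 0–100 against controls.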

[6] = system: palmer pigweed (Amaranthus palmeri); assay: as above; conditions: scale 0 to 100; for Pigweed, Palmer plant response rating: Preemergence
How it was run: as §2

[7] = system: ducksalad (Heteranthera limosa); assay: Test B flooded paddy test, plant response rating 0-100; conditions: Flood, 250 g ai/ha; scale 0 to 100 (0 no effect, 100 complete control); 13 to 15 days
How it was run: (§3)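 Pots were flooded to 3 cm above the soil surface at treatment, compound applied directly to the paddy water, and that depth held throughout. Plants were kept in a greenhouse for 13 to 15 days, then visually rated against untreated controls.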

rice (Oryza sativa) = assay: as above; conditions: Flood, 250 g ai/ha; scale 0 to 100 (0 no effect, 100 complete control); 13 to 15 days
How it was run: as §3

[8] = system: sedge, umbrella (small-flower umbrella sedge, Cyperus difformis); assay: as above; conditions: Flood, 250 g ai/ha; scale 0 to 100 (0 no effect, 100 complete control); 13 to 15 days
How it was run: as §3

[9] = system: barnyardgrass (Echinochloa crus-galli); assay: as above; conditions: Flood, 250 g ai/ha; scale 0 to 100 (0 no effect, 100 complete control); 13 to 15 days
How it was run: as §3

[10] = Postemergence, 250 g ai/ha, scale 0 to 100
[11] = Postemergence, 500 g ai/ha, scale 0 to 100
[12] = Postemergence, 125 g ai/ha, scale 0 to 100

`O=C(c1ccccc1)c1cn(S(=O)(=O)CC(F)(F)F)nc1-c1cc(Cl)cc(Cl)c1` [Compound 3] was tested, and the “Plant response rating (0 to 100), Waterhemp” value ([1]; Postemergence, 62 g ai/ha) was 90, the “Plant response rating (0 to 100), Waterhemp” value ([1]; Postemergence, 125 g ai/ha) was 90 and the “Plant response rating, Waterhemp” value [1, 10] was 90. The “Plant response rating, Waterhemp” value [1, 11] was 95, the “Plant response rating, Waterhemp” value ([1]; Preemergence, 62 g ai/ha) was 100 and the “Plant response rating, Waterhemp” value ([1]; Preemergence, 125 g ai/ha) was 100. The “Plant response rating, Waterhemp” value ([1]; Preemergence, 250 g ai/ha) was 100, the “Plant response rating, Waterhemp” value ([1]; Preemergence, 500 g ai/ha) was 100 and the “Plant response rating, Waterhemp” value ([1]; Preemergence, 0 to 100 scale (0 no effect, 100 complete control), rate 500 g ai/ha) was 100. For the same molecule, the “Plant response rating (0 to 100), Oilseed Rape” value ([2]; Postemergence, 62 g ai/ha) was 60, the “Plant response rating (0 to 100), Oilseed Rape” value ([2]; Postemergence, 125 g ai/ha) was 70 and the “Plant response rating, Oilseed Rape” value [2, 10] was 80. The “Plant response rating, Oilseed Rape” value [2, 11] was 85, the “Plant response rating, Oilseed Rape” value ([2]; Preemergence, 62 g ai/ha) was 40 and the “Plant response rating, Oilseed Rape” value ([2]; Preemergence, 125 g ai/ha) was 80. For the same molecule, the “Plant response rating, Oilseed Rape” value ([2]; Preemergence, 250 g ai/ha) was 80, the “Plant response rating, Oilseed Rape” value ([2]; Preemergence, 500 g ai/ha) was 100 and the “Plant response rating (0 to 100), Barnyardgrass” value ([3]; Postemergence, 62 g ai/ha) was 0. For the same molecule, the “Plant response rating, Barnyardgrass” value [3, 12] was 0, the “Plant response rating, Barnyardgrass” value [3, 10] was 5 and the “Plant response rating, Barnyardgrass” value [3, 11] was 10. For the same molecule, the “Plant response rating, Barnyardgrass” value ([3]; Preemergence, 62 g ai/ha) was 0, the “Plant response rating, Barnyardgrass” value ([3]; Preemergence, 125 g ai/ha) was 0 and the “Plant response rating, Barnyardgrass” value ([3]; Preemergence, 250 g ai/ha) was 0. For the same molecule, the “Plant response rating, Barnyardgrass” value ([3]; Preemergence, 500 g ai/ha) was 0, the “Plant response rating, Waterhemp_RES2” value ([4]; 31 g ai/ha) was 60 and the “Plant response rating, Waterhemp_RES2” value ([4]; 62 g ai/ha) was 80. The “Plant response rating, Waterhemp_RES2” value ([4]; 125 g ai/ha) was 70, the “Plant response rating, Waterhemp_RES2” value ([4]; 250 g ai/ha) was 95 and the “Plant response rating, Waterhemp_RES2” value ([4]; 500 g ai/ha) was 95. The “Plant response rating, Arrowleaf Sida” value ([5]; Postemergence, 31 g ai/ha, scale 0 to 100) was 85, the “Plant response rating, Arrowleaf Sida” value ([5]; Postemergence, 62 g ai/ha, scale 0 to 100) was 95 and the “Plant response rating, Arrowleaf Sida” value [5, 12] was 90. The “Plant response rating, Arrowleaf Sida” value [5, 10] was 95, the “Plant response rating, Arrowleaf Sida” value ([5]; Postemergence, 500 g ai/ha, scale 0 to 100 (0 no effect, 100 complete control)) was 98 and the “Arrowleaf Sida plant response rating” value ([5]; 31 g ai/ha, scale 0 to 100) was 0. For the same molecule, the “Arrowleaf Sida plant response rating” value ([5]; 62 g ai/ha, scale 0 to 100) was 40, the “Arrowleaf Sida plant response rating” value ([5]; 125 g ai/ha, scale 0 to 100) was 70 and the “Arrowleaf Sida plant response rating” value ([5]; 250 g ai/ha, scale 0 to 100) was 90. For the same molecule, the “Arrowleaf Sida plant response rating” value ([5]; 500 g ai/ha, scale 0 to 100) was 98, the “Plant response rating, Pigweed, Palmer” value ([6]; Postemergence, 31 g ai/ha) was 40 and the “Plant response rating, Pigweed, Palmer” value ([6]; Postemergence, 62 g ai/ha) was 50. For the same molecule, the “Plant response rating, Pigweed, Palmer” value ([6]; Postemergence, 125 g ai/ha) was 75, the “Plant response rating, Pigweed, Palmer” value ([6]; Postemergence, 250 g ai/ha) was 90 and the “Plant response rating, Pigweed, Palmer” value ([6]; Postemergence, 500 g ai/ha) was 75. For the same molecule, the “Pigweed, Palmer plant response rating” value ([6]; 31 g ai/ha) was 0, the “Pigweed, Palmer plant response rating” value ([6]; 62 g ai/ha) was 20 and the “Pigweed, Palmer plant response rating” value ([6]; 125 g ai/ha) was 65. For the same molecule, the “Pigweed, Palmer plant response rating” value ([6]; 250 g ai/ha) was 50, the “Pigweed, Palmer plant response rating” value ([6]; 500 g ai/ha) was 100 and the “Plant response rating, Ducksalad” value [7] was 0. The “Plant response rating, Rice” value (rice (Oryza sativa)) was 0, the “Plant response rating, Sedge, Umbrella” value [8] was 0 and the “Plant response rating, Barnyardgrass” value [9] was 0.

With `COCC(=O)n1cc(C(=O)c2ccccc2)c(-c2cc(Cl)cc(Cl)c2)n1` [Compound 16, 1-[4-benzoyl-3-(3,5-dichlorophenyl)-1H-pyrazol-1-yl]-2-methoxyethanone] the “Plant response rating (0 to 100), Waterhemp” value ([1]; Postemergence, 62 g ai/ha) was 90, the “Plant response rating (0 to 100), Waterhemp” value ([1]; Postemergence, 125 g ai/ha) was 95 and the “Plant response rating, Waterhemp” value [1, 10] was 98. The “Plant response rating, Waterhemp” value [1, 11] was 100, the “Plant response rating, Waterhemp” value ([1]; Preemergence, 62 g ai/ha) was 100 and the “Plant response rating, Waterhemp” value ([1]; Preemergence, 125 g ai/ha) was 100. For the same molecule, the “Plant response rating, Waterhemp” value ([1]; Preemergence, 250 g ai/ha) was 100, the “Plant response rating, Waterhemp” value ([1]; Preemergence, 500 g ai/ha) was 100 and the “Plant response rating (0 to 100), Oilseed Rape” value ([2]; Postemergence, 62 g ai/ha) was 50. The “Plant response rating (0 to 100), Oilseed Rape” value ([2]; Postemergence, 125 g ai/ha) was 60, the “Plant response rating, Oilseed Rape” value [2, 10] was 90 and the “Plant response rating, Oilseed Rape” value [2, 11] was 90. For the same molecule, the “Plant response rating, Oilseed Rape” value ([2]; Preemergence, 62 g ai/ha) was 0, the “Plant response rating, Oilseed Rape” value ([2]; Preemergence, 125 g ai/ha) was 50 and the “Plant response rating, Oilseed Rape” value ([2]; Preemergence, 250 g ai/ha) was 100. For the same molecule, the “Plant response rating, Oilseed Rape” value ([2]; Preemergence, 500 g ai/ha) was 100, the “Plant response rating (0 to 100), Barnyardgrass” value ([3]; Postemergence, 62 g ai/ha) was 0 and the “Plant response rating, Barnyardgrass” value [3, 12] was 0. For the same molecule, the “Plant response rating, Barnyardgrass” value [3, 10] was 0, the “Plant response rating, Barnyardgrass” value [3, 11] was 0 and the “Plant response rating, Barnyardgrass” value ([3]; Preemergence, 62 g ai/ha) was 0. For the same molecule, the “Plant response rating, Barnyardgrass” value ([3]; Preemergence, 125 g ai/ha) was 0, the “Plant response rating, Barnyardgrass” value ([3]; Preemergence, 250 g ai/ha) was 0 and the “Plant response rating, Barnyardgrass” value ([3]; Preemergence, 500 g ai/ha) was 0. The “Plant response rating, Waterhemp_RES2” value ([4]; 31 g ai/ha) was 95, the “Plant response rating, Waterhemp_RES2” value ([4]; 62 g ai/ha) was 95 and the “Plant response rating, Waterhemp_RES2” value ([4]; 125 g ai/ha) was 75. For the same molecule, the “Plant response rating, Waterhemp_RES2” value ([4]; 250 g ai/ha) was 98, the “Plant response rating, Waterhemp_RES2” value ([4]; 500 g ai/ha) was 100 and the “Arrowleaf Sida plant response rating” value ([5]; 31 g ai/ha, scale 0 to 100) was 25. For the same molecule, the “Arrowleaf Sida plant response rating” value ([5]; 62 g ai/ha, scale 0 to 100) was 35, the “Arrowleaf Sida plant response rating” value ([5]; 125 g ai/ha, scale 0 to 100) was 90 and the “Arrowleaf Sida plant response rating” value ([5]; 250 g ai/ha, scale 0 to 100) was 95. The “Arrowleaf Sida plant response rating” value ([5]; 500 g ai/ha, scale 0 to 100) was 100, the pest or weed control at 31 g/ha ([5]; Sida rhombifolia, post-emergence, Postemergence, 31 g ai/ha, scale 0 to 100) was 95% and the pest or weed control at 62 g/ha ([5]; Sida rhombifolia, post-emergence, Postemergence, 62 g ai/ha, scale 0 to 100) was 98%. For the same molecule, the pest or weed control at 125 g/ha ([5]; Sida rhombifolia, post-emergence, Postemergence, 125 g ai/ha, scale 0 to 100) was 98%, the pest or weed control at 250 g/ha ([5]; Sida rhombifolia, post-emergence, Postemergence, 250 g ai/ha, scale 0 to 100) was 98% and the pest or weed control at 500 g/ha ([5]; Sida rhombifolia, post-emergence, Postemergence, 500 g ai/ha, scale 0 to 100 (0 no effect, 100 complete control)) was 100%. For the same molecule, the pest or weed control at 31 g/ha ([6]; Amaranthus palmeri, post-emergence, Postemergence, 31 g ai/ha) was 70%, the pest or weed control at 62 g/ha ([6]; Amaranthus palmeri, post-emergence, Postemergence, 62 g ai/ha) was 70% and the pest or weed control at 125 g/ha ([6]; Amaranthus palmeri, post-emergence, Postemergence, 125 g ai/ha) was 90%. The pest or weed control at 250 g/ha ([6]; Amaranthus palmeri, post-emergence, Postemergence, 250 g ai/ha) was 90%, the pest or weed control at 500 g/ha ([6]; Amaranthus palmeri, post-emergence, Postemergence, 500 g ai/ha) was 100% and the “Pigweed, Palmer plant response rating” value ([6]; 31 g ai/ha) was 0. For the same molecule, the “Pigweed, Palmer plant response rating” value ([6]; 62 g ai/ha) was 0, the “Pigweed, Palmer plant response rating” value ([6]; 125 g ai/ha) was 0 and the “Pigweed, Palmer plant response rating” value ([6]; 250 g ai/ha) was 0. The “Pigweed, Palmer plant response rating” value ([6]; 500 g ai/ha) was 0, the “Plant response rating, Ducksalad” value [7] was 0 and the “Plant response rating, Rice” value (rice (Oryza sativa)) was 0. For the same molecule, the “Plant response rating, Sedge, Umbrella” value [8] was 0 and the “Plant response rating, Barnyardgrass” value [9] was 0.
